Assay results taken from patent US10570129B2 (Zoetis Services LLC, priority 2015, dated 2020).

Assays:
D. immitis microfilariae = experiment: Dirofilaria immitis, microfilariae (DiMF) in vitro motility assay; type: cell-based; details: Dirofilaria immitis, 72 h, read-out: DiMF minimally effective dose (MEC)
[1] = tested on: Trichostrongylus colubriformis; experiment: Jird efficacy model; type: in vivo; details: Trichostrongylus colubriformis, sc, 96 h, read-out: Jird % (percentage efficacy)
Haemonchus contortus L3 = experiment: microbe, parasite or virus in culture; type: cell-based; details: Haemonchus contortus, 96 h, read-out: HcL3 Minimal Effective Concentration (MEC)

Compound | minimal effective concentration (D. immitis microfilariae) [µM] | inhibition in vivo at 10 mg/kg [1] [%] | minimal effective concentration (Haemonchus contortus L3) [µM]
O=C(NCc1ccnc(Cl)c1)n1c2c(c3c(Cl)c(F)ccc31)CN(C/C=C/c1ccc(F)cc1)CC2 [Example 307, (E)-9-chloro-N-((2-chloropyridin-4-yl)methyl)-8-fluoro-2-(3-(4-fluorophenyl)allyl)-1,2,3,4-tetrahydro-5H-pyrido[4,3-b]indole-5-carboxamide] | 3.3 | 100 | 0.5
O=C(NCc1ccnc(F)c1)n1c2c(c3cc(F)c(Cl)cc31)CN(C/C=C/c1ccc(F)c(F)c1)CC2 [Example 314, (E)-7-chloro-2-(3-(3,4-difluorophenyl)allyl)-8-fluoro-N-((2-fluoropyridin-4-yl)methyl)-1,2,3,4-tetrahydro-5H-pyrido[4,3-b]indole-5-carboxamide] | 3.3 | 100 | 1
O=C(NCc1ccnc(F)c1)n1c2c(c3cc(F)c(Cl)cc31)CN(C/C=C/c1ccc(Cl)cc1)CC2 [Example 317, (E)-7-chloro-2-(3-(4-chlorophenyl)allyl)-8-fluoro-N-((2-fluoropyridin-4-yl)methyl)-1,2,3,4-tetrahydro-5H-pyrido[4,3-b]indole-5-carboxamide] | 18.2 | 100 | 1
N#Cc1ccc(/C=C/CN2CCc3c(c4c(F)cc(C(F)(F)F)cc4n3C(=O)NCc3ccnc(Cl)c3)C2)cc1 [Example 321, (E)-N-((2-chloropyridin-4-yl)methyl)-2-(3-(4-cyanophenyl)allyl)-9-fluoro-7-(trifluoromethyl)-1,2,3,4-tetrahydro-5H-pyrido[4,3-b]indole-5-carboxamide] | 5.7 | 100 | 2.4
N#Cc1cc(/C=C/CN2CCc3c(c4ccc(OC(F)(F)F)cc4n3C(=O)NCc3ccnc(Cl)c3)C2)ccc1F [Example 344, (E)-N-((2-chloropyridin-4-yl)methyl)-2-(3-(3-cyano-4-fluorophenyl)allyl)-7-(trifluoromethoxy)-1,2,3,4-tetrahydro-5H-pyrido[4,3-b]indole-5-carboxamide] | 10 | 100 | 0.5
O=C(NCc1ccnc(Cl)c1)n1c2c(c3ccc(OC(F)(F)F)cc31)CN(C/C=C/c1ccc(F)c(F)c1)CC2 [Example 349, (E)-N-((2-chloropyridin-4-yl)methyl)-2-(3-(3,4-difluorophenyl)allyl)-7-(trifluoromethoxy)-1,2,3,4-tetrahydro-5H-pyrido[4,3-b]indole-5-carboxamide] | 10 | 99 | 1
O=C(NCc1ccnc(Cl)c1)n1c2c(c3ccc(OC(F)(F)F)cc31)CN(C/C=C/c1ccc(F)cc1)CC2 [Example 356, (E)-N-((2-chloropyridin-4-yl)methyl)-2-(3-(4-fluorophenyl)allyl)-7-(trifluoromethoxy)-1,2,3,4-tetrahydro-5H-pyrido[4,3-b]indole-5-carboxamide] | 3.8 | 100 | 0.6
O=C(NCc1ccnc(F)c1)n1c2c(c3ccc(OC(F)(F)F)cc31)CN(C/C=C/c1ccc(F)cc1F)CC2 [Example 374, (E)-2-(3-(2,4-difluorophenyl)allyl)-N-((2-fluoropyridin-4-yl)methyl)-7-(trifluoromethoxy)-1,2,3,4-tetrahydro-5H-pyrido[4,3-b]indole-5-carboxamide] | 5.7 | 72 | 5.7
O=C(NCc1ccnc(F)c1)n1c2c(c3ccc(OC(F)(F)F)cc31)CN(C/C=C/c1cc(F)c(F)c(F)c1)CC2 [Example 377, (E)-N-((2-fluoropyridin-4-yl)methyl)-7-(trifluoromethoxy)-2-(3-(3,4,5-trifluorophenyl)allyl)-1,2,3,4-tetrahydro-5H-pyrido[4,3-b]indole-5-carboxamide] | 5.7 | 99 | 0.3
O=C(NCc1ccnc(F)c1)n1c2c(c3ccc(OC(F)(F)F)cc31)CN(C/C=C/c1ccc(Cl)cc1)CC2 [Example 379, (E)-2-(3-(4-chlorophenyl)allyl)-N-((2-fluoropyridin-4-yl)methyl)-7-(trifluoromethoxy)-1,2,3,4-tetrahydro-5H-pyrido[4,3-b]indole-5-carboxamide] | 5.7 | 100 | 1
N#Cc1ccc(/C=C/CN2CCc3c(c4cc(OC(F)(F)F)ccc4n3C(=O)NCc3ccnc(Cl)c3)C2)cc1 [Example 390, (E)-N-((2-chloropyridin-4-yl)methyl)-2-(3-(4-cyanophenyl)allyl)-8-(trifluoromethoxy)-1,2,3,4-tetrahydro-5H-pyrido[4,3-b]indole-5-carboxamide] | 18.2 | 100 | 0.5
O=C(NCc1ccnc(Cl)c1)n1c2c(c3cc(OC(F)(F)F)ccc31)CN(C/C=C/c1ccc(Cl)cc1)CC2 [Example 391, (E)-2-(3-(4-chlorophenyl)allyl)-N-((2-chloropyridin-4-yl)methyl)-8-(trifluoromethoxy)-1,2,3,4-tetrahydro-5H-pyrido[4,3-b]indole-5-carboxamide] | 32.1 | 100 | 1
O=C(NCc1ccnc(F)c1)n1c2c(c3cc(C(F)(F)F)ccc31)CN(C/C=C/c1ccc(F)cc1F)CC2 [Example 417, (E)-2-(3-(2,4-difluorophenyl)allyl)-N-((2-fluoropyridin-4-yl)methyl)-8-(trifluoromethyl)-1,2,3,4-tetrahydro-5H-pyrido[4,3-b]indole-5-carboxamide] | 10 | 100 | 5.7
O=C(NCc1ccnc(F)c1)n1c2c(c3cc(C(F)(F)F)ccc31)CN(C/C=C/c1ccc(F)c(Cl)c1)CC2 [Example 418, (E)-2-(3-(3-chloro-4-fluorophenyl)allyl)-N-((2-fluoropyridin-4-yl)methyl)-8-(trifluoromethyl)-1,2,3,4-tetrahydro-5H-pyrido[4,3-b]indole-5-carboxamide] | 18.2 | 95 | 3.3
O=C(NCc1ccnc(F)c1)n1c2c(c3cc(C(F)(F)F)ccc31)CN(C/C=C/c1ccc(F)c(F)c1)CC2 [Example 419, (E)-2-(3-(3,4-difluorophenyl)allyl)-N-((2-fluoropyridin-4-yl)methyl)-8-(trifluoromethyl)-1,2,3,4-tetrahydro-5H-pyrido[4,3-b]indole-5-carboxamide] | 10 | 100 | 1
N#Cc1ccc(/C=C/CN2CCc3c(c4cc(C(F)(F)F)ccc4n3C(=O)NCc3ccnc(F)c3)C2)cc1 [Example 420, (E)-2-(3-(4-cyanophenyl)allyl)-N-((2-fluoropyridin-4-yl)methyl)-8-(trifluoromethyl)-1,2,3,4-tetrahydro-5H-pyrido[4,3-b]indole-5-carboxamide] | 14.1 | 100 | 2.8
